From US5089504A, “Substituted 4-aminoquinoline derivatives as gastric acid secretion inhibitors” (SmithKline Beckman Intercredit B.V., priority 1988, dated 1992)
Where a name gives a salt, the structure may show the parent alone.

Key:
[1] = system: pentagastrin stimulated gastric acid secretion; test: Rat lumen perfused stomach (pentagastrin stimulated gastric acid secretion); format: in vivo; settings: iv, 10 μmole/kg
Source text: B. Rat Lumen Perfused Stomach ([…] stimulated […] secretion) Using a modification of the procedure described by Ghosh & Schild (Br. J. Pharmacology, 13, 54, 1958), the compounds of the following examples were found on i.v. administration at a concentration of 10 μmole/kg to cause an inhibition of pentagastrin stimulated gastric acid secretion as follows: […]

[2] = target: T1, gastrointestinal H^+ K^+ ATPase (Sus scrofa, UniProt P19156); test: K+-stimulated ATPase activity in lyophilized gastric vesicles (H/K-ATPase); format: biochemical; settings: lyophilized pig gastric vesicles, 37° C.; for IC50: K+-stimulated ATPase activity, pH 7.0, 30 minutes
T1 construct: Lyophilized gastric vesicles were prepared from pig fundic mucosa; from tissue; host or cells: pig fundic mucosa (lyophilized gastric vesicles)
T1 sequence (P19156 2-1034 limits assumed): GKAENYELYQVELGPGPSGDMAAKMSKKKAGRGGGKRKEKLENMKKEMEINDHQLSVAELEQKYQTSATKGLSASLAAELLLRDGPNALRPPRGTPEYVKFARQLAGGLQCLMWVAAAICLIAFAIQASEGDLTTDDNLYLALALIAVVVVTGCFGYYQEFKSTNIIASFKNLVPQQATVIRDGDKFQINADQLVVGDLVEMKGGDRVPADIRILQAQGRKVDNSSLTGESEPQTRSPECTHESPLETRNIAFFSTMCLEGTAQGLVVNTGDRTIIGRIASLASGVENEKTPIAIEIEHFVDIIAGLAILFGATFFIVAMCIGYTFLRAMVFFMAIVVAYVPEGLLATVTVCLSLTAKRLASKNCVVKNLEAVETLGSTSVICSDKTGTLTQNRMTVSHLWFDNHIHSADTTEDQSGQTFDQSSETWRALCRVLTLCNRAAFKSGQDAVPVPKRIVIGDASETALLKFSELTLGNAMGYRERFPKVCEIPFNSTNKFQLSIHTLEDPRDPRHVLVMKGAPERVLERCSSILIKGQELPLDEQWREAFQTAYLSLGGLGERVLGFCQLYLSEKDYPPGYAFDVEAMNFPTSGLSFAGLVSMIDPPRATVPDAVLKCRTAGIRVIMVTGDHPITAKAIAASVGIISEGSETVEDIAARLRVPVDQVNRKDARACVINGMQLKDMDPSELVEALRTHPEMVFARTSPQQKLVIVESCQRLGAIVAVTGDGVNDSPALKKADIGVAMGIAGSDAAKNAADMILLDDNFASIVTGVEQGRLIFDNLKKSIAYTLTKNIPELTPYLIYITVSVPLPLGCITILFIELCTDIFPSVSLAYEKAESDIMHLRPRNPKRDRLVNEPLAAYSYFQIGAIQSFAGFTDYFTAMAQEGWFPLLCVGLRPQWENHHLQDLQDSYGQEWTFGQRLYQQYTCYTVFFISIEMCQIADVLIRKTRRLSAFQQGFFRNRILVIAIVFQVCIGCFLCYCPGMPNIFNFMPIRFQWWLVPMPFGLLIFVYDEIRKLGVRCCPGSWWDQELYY
T1 sequence (P18434 whole entry partner): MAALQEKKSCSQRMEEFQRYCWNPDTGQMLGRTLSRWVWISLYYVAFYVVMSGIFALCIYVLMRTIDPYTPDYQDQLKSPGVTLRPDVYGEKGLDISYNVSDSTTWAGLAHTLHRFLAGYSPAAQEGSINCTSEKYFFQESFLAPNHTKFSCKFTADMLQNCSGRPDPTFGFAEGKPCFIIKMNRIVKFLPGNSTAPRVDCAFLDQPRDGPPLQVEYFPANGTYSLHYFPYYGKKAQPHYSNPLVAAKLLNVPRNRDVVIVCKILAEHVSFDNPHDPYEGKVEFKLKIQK
Experimental: The effects of a single high concentration (100 μM) of a compound of structure (I) on K-stimulated ATPase activity in lyophilized gastric vesicles was determined. Preferred compounds of structure (I) were also tested over a range of concentrations to determine IC50 values. Lyophilized gastric vesicles were prepared from pig fundic mucosa after the method of Keeling et. al. (Biochem. Pharmacol., 34, 2967, 1985). K^+ -stimulated ATPase activity was determined at 37° C. in the presence of the following : 10 mM Pipes/Tris buffer pH 7.0, 2 mM MgSO4, 1 mM KCl, 2 mM Na2 ATP and 3-6 μg protein/ml lyophilized gastric vesicles. After incubation for 30 minutes, the inorganic phosphate hydrolyzed from ATP was determined by the method of Yoda and Hokin (Biochem. Biophys. Res. Commun. 40, 880, 1970). Compounds of structure (I) were dissolved in dimethylsulphoxide which up to the highest concentration used had no effect on K^+ -stimulated ATPase activity. The effect of the highest concentration of each compound of structure (I) on the recovery of a standard amount of inorganic phosphate was also determined.

SMILES | inhibition in vivo at 10 µmol/kg [1] [%] | IC50 [2] [nM] | % inhibition of K+-stimulated ATPase activity (printed in IC50 column as % @ 100) ([2]; @ 100 (μM), pH 7.0) [%]
Cc1cc(O)ccc1Nc1c(C(=O)C(C)C)cnc2c(CO)cccc12 [Example 16, 3-isobutyryl-4-(4-hydroxy-2-methylphenylamino)-8-(hydroxymethyl)quinoline hydrochloride] | 91 | 40 | 
CCCC(=O)c1cnc2c(OCCO)cccc2c1Nc1ccc(F)cc1C [Example 14, 3-butyryl-4-(4-fluoro-2-methylphenylamino)-8-(2-hydroxyethoxy)quinoline] | 79 | 2700 | 
Cc1cc(F)ccc1Nc1c(C(=O)C(C)C)cnc2c(CO)cccc12 [Example 8, 3-isobutyryl-4-(4-fluoro-2-methylphenylamino)-8-(hydroxymethyl)quinoline] | 76 | 2100 | 
CCCC(=O)c1cnc2ccc(CO)cc2c1Nc1ccccc1C [Example 5, 3-butyryl-4-(2-methylphenylamino)-6-hydroxymethylquinoline] | 46 | 4400 | 
CCCC(=O)c1cnc2c(OCCO)cccc2c1Nc1ccccc1C [Example 10, 3-butyryl-4-(2-methylphenylamino)-8-(2-hydroxyethoxy)quinoline] | 68 | 2400 | 
CCCC(=O)c1cnc2cc(CO)ccc2c1Nc1ccccc1C [Example 6, 3-butyryl-4-(2-methylphenylamino)-7-hydroxymethylquinoline] |  |  | 44
CCCC(=O)c1cnc2c(C(C)O)cccc2c1Nc1ccc(O)cc1C (stereo not shown) [Example 15, 3-butyryl-4-(4-hydroxy-2-methylphenylamino)-8-(1-hydroxyethyl)quinoline] | 70 | 60 | 
CCCC(=O)c1cnc2c(OCCOCCOCCO)cccc2c1Nc1ccccc1C [Example 12, 3-butyryl-4-(2-methylphenylamino)-8-(2-(2-(2-hydroxyethoxy)ethoxy)ethoxy)quinoline] | 57 | 2400 | 
CCCC(=O)c1cnc2c(C(C)O)cccc2c1Nc1ccccc1C (stereo not shown) [Example 4, 3-butyryl-4-(2-methylphenylamino)-8-(1-hydroxyethyl)quinoline] | 63 | 360 | 
CCCC(=O)c1cnc2c(OCCOCCO)cccc2c1Nc1ccccc1C [Example 11, 3-butyryl-4-(2-methylphenylamino)-8-(2-(2-hydroxyethoxy)ethoxy)quinoline] | 77 | 2100 | 
CCCC(=O)c1cnc2c(CO)cccc2c1Nc1ccccc1C [Example 1, 3-butyryl-4-(2-methylphenylamino)-8-(hydroxymethyl)quinoline] | 61 | 840 | 
Cc1ccccc1Nc1c(C(=O)C(C)C)cnc2c(CO)cccc12 [Example 7, 3-isobutyryl-4-(2-methylphenylamino)-8-(hydroxymethyl)quinoline] | 74 | 820 | 
CCCC(=O)c1cnc2c(CO)cccc2c1Nc1ccc(O)cc1C [Example 3, 3-butyryl-4-(4-hydroxy-2-methylphenylamino)-8-(hydroxymethyl)quinoline hydrochloride] | 88 | 180 | 
CCCC(=O)c1cnc2c(OCCOCCO)cccc2c1Nc1ccc(F)cc1C [Example 13, 3-butyryl-4-(4-fluoro-2-methylphenylamino)-8-(2-(2-hydroxyethoxy)ethoxy)quinoline] | 49 | 4000 | 
CCCC(=O)c1cnc2c(CO)cccc2c1Nc1ccc(F)cc1C [Example 9, 3-butyryl-4-(4-fluoro-2-methylphenylamino)-8-(hydroxymethyl)quinoline] | 55 | 2200 | 
CCCC(=O)c1cnc2c(OCCOC)cccc2c1Nc1ccccc1C [Example 2, 3-butyryl-4-(2-methylphenylamino)-8-(2-methoxyethoxy)quinoline] | 67 | 2500 | 
